Assay results reported in PubChem BioAssay AID248 (DTP/NCI, 2004).
Toxic doses and inconclusive results are not listed. No stated cut-off is given here; in the data, active means T/C of 150% or more; inactive means T/C below 125%.

Tested on: L1210 leukemia ip in BDF1 mice, survival T/C
Assay: NCI In Vivo Anticancer Drug Screen. Data for tumor model L1210 Leukemia (intraperitoneal) in B6D2F1 (BDF1) mice
Details: endpoint: mean survival time, higher = longer survival
Method in brief: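 Antitumor effect is assessed in tumor-bearing animals. Survival in the compound arm is compared with a vehicle-dosed control arm and expressed as their quotient.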

[1] = dose: 100.0 mg/kg/injection, schedule: Q04DX003 (ip), vehicle: saline with Tween-80
[2] = dose: 200.0 mg/kg/injection, schedule: Q04DX003 (ip), vehicle: saline with Tween-80
[3] = dose: 400.0 mg/kg/injection, schedule: Q04DX003 (ip), vehicle: saline with Tween-80
[4] = dose: 100.0 mg/kg/injection, schedule: Q01DX009 (ip), vehicle: Klucel (hydroxypropylcellulose) (HPC)
[5] = dose: 200.0 mg/kg/injection, schedule: Q01DX009 (ip), vehicle: Klucel (hydroxypropylcellulose) (HPC)
[6] = dose: 400.0 mg/kg/injection, schedule: Q01DX009 (ip), vehicle: Klucel (hydroxypropylcellulose) (HPC)
[7] = dose: 100.0 mg/kg/injection, schedule: Q01DX001 (ip), vehicle: saline
[8] = dose: 200.0 mg/kg/injection, schedule: Q01DX001 (ip), vehicle: saline
[9] = dose: 400.0 mg/kg/injection, schedule: Q01DX001 (ip), vehicle: saline
[10] = dose: 100.0 mg/kg/injection, schedule: Q04DX003 (ip), vehicle: Klucel (hydroxypropylcellulose) (HPC)
[11] = dose: 200.0 mg/kg/injection, schedule: Q04DX003 (ip), vehicle: Klucel (hydroxypropylcellulose) (HPC)
[12] = dose: 400.0 mg/kg/injection, schedule: Q04DX003 (ip), vehicle: Klucel (hydroxypropylcellulose) (HPC)
[13] = dose: 100.0 mg/kg/injection, schedule: Q01DX001 (ip), vehicle: carboxymethylcellulose (CMC)
[14] = dose: 100.0 mg/kg/injection, schedule: Q01DX009 (ip), vehicle: saline
[15] = dose: 100.0 mg/kg/injection, schedule: Q04DX003 (ip), vehicle: saline
[16] = dose: 200.0 mg/kg/injection, schedule: Q01DX009 (ip), vehicle: saline
[17] = dose: 200.0 mg/kg/injection, schedule: Q04DX003 (ip), vehicle: saline
[18] = dose: 400.0 mg/kg/injection, schedule: Q01DX009 (ip), vehicle: saline
[19] = dose: 400.0 mg/kg/injection, schedule: Q04DX003 (ip), vehicle: saline

Measured: T/C

C1CC2CCCC3CC(B4OCCO4)CC(C1)C23 (configuration not stated) (tested in a mixture with another compound)
inactive: dose: 100.0 mg/kg/injection, schedule: Q01DX009 (ip), vehicle: other 101 % of control | [1] 97 % of control | dose: 200.0 mg/kg/injection, schedule: Q01DX009 (ip), vehicle: other 105 % of control | [2] 92 % of control | dose: 400.0 mg/kg/injection, schedule: Q01DX009 (ip), vehicle: other 108 % of control | [3] 106 % of control

Cc1cc(OC(=O)Nc2cc(C(F)(F)F)ccc2Cl)cc(C)c1Cl
inactive: [4] 91 % of control | [5] 104 % of control | [6] 93 % of control

c1ccc(-c2cc[s+]s2)cc1
inactive: dose: 12.5 mg/kg/injection, schedule: Q01DX009 (ip), vehicle: water 95 % of control | dose: 12.5 mg/kg/injection, schedule: Q04DX003 (ip), vehicle: water 98 % of control | dose: 25.0 mg/kg/injection, schedule: Q01DX009 (ip), vehicle: water 91 % of control | dose: 25.0 mg/kg/injection, schedule: Q04DX003 (ip), vehicle: water 96 % of control | dose: 50.0 mg/kg/injection, schedule: Q01DX009 (ip), vehicle: water 98 % of control | dose: 50.0 mg/kg/injection, schedule: Q04DX003 (ip), vehicle: water 109 % of control

CN(C)C(=Nc1ccc(NC(=O)c2ccc(C(=O)Nc3ccc(N=C(Nc4ccccc4)N(C)C)cc3)cc2)cc1)Nc1ccccc1
inactive: dose: 1.5 mg/kg/injection, schedule: Q01DX Z (ip), vehicle: carboxymethylcellulose (CMC) 95 % of control | dose: 3.0 mg/kg/injection, schedule: Q01DX Z (ip), vehicle: carboxymethylcellulose (CMC) 97 % of control | dose: 6.0 mg/kg/injection, schedule: Q01DX Z (ip), vehicle: carboxymethylcellulose (CMC) 107 % of control | dose: 12.0 mg/kg/injection, schedule: Q01DX Z (ip), vehicle: carboxymethylcellulose (CMC) 89 % of control

O=[N+]([O-])c1ccc(CS(=O)Cc2ccccc2)cc1 (configuration not stated)
inactive: dose: 75.0 mg/kg/injection, schedule: Q01DX001 (ip), vehicle: carboxymethylcellulose (CMC) 91 % of control | dose: 150.0 mg/kg/injection, schedule: Q01DX001 (ip), vehicle: carboxymethylcellulose (CMC) 100 % of control | dose: 300.0 mg/kg/injection, schedule: Q01DX001 (ip), vehicle: carboxymethylcellulose (CMC) 100 % of control

O=C(O)C(c1ccccc1)(c1ccccc1)c1ccccc1
inactive: dose: 50.0 mg/kg/injection, schedule: Q01DX001 (ip), vehicle: saline 101 % of control | [7] 106 % of control | [8] 103 % of control

CN(C)S(=O)(=O)c1ccc(NC(=O)OC2CCCCCCC2)cc1
inactive: [7] 96 % of control | [8] 94 % of control | [9] 89 % of control

OCC(Oc1ccccc1)C(O)C(O)C(CO)Oc1ccccc1 (configuration not stated)
inactive: [4] 103 % of control | [5] 103 % of control | [6] 95 % of control

COc1cc2c(c(OC)c1OC)-c1ccc(N)c(=O)cc1[C@@H](NC(C)=O)CC2
inactive: dose: 0.5 mg/kg/injection, schedule: Q01DX015 (ip), vehicle: saline 116 % of control | dose: 1.0 mg/kg/injection, schedule: Q01DX015 (ip), vehicle: saline 118 % of control | dose: 2.0 mg/kg/injection, schedule: Q01DX001 (ip), vehicle: saline 112 % of control | dose: 2.0 mg/kg/injection, schedule: Q01DX015 (ip), vehicle: saline 92 % of control | dose: 4.0 mg/kg/injection, schedule: Q01DX001 (ip), vehicle: saline 100 % of control | dose: 4.0 mg/kg/injection, schedule: Q01DX015 (ip), vehicle: saline 116 % of control | dose: 8.0 mg/kg/injection, schedule: Q01DX001 (ip), vehicle: saline 98 % of control | dose: 16.0 mg/kg/injection, schedule: Q01DX001 (ip), vehicle: saline 104 % of control

Cc1ccc(S(=O)(=O)Nc2cc(Cl)c(I)cc2Cl)cc1
inactive: [2] 90 % of control | [3] 101 % of control

C=C(C)COP(=O)(OCC(=C)C)OCC(=C)C
inactive: [4] 97 % of control | [10] 97 % of control | [5] 100 % of control | [11] 100 % of control | [6] 103 % of control | [12] 92 % of control

CC(=O)NC1CCC(NC(C)=O)CC1 (configuration not stated)
inactive: [7] 104 % of control | [8] 97 % of control | [9] 104 % of control

CC1=COC(C)(C=O)CC1 (configuration not stated)
inactive: dose: 222.0 mg/kg/injection, schedule: Q01DX Z (ip), vehicle: methylcellulose (MC) 94 % of control | dose: 333.0 mg/kg/injection, schedule: Q01DX Z (ip), vehicle: methylcellulose (MC) 98 % of control | dose: 500.0 mg/kg/injection, schedule: Q01DX Z (ip), vehicle: methylcellulose (MC) 88 % of control

C[N+](C)(C)c1ccc(N2C(=O)C3C4c5ccccc5C(C3C2=O)[n+]2ccccc24)cc1 (configuration not stated)
inactive: dose: 1.56 mg/kg/injection, schedule: Q01DX009 (ip), vehicle: Klucel (hydroxypropylcellulose) (HPC) 103 % of control | dose: 3.12 mg/kg/injection, schedule: Q01DX009 (ip), vehicle: Klucel (hydroxypropylcellulose) (HPC) 97 % of control | dose: 6.25 mg/kg/injection, schedule: Q01DX009 (ip), vehicle: Klucel (hydroxypropylcellulose) (HPC) 100 % of control | dose: 12.5 mg/kg/injection, schedule: Q04DX003 (ip), vehicle: saline 101 % of control | dose: 25.0 mg/kg/injection, schedule: Q04DX003 (ip), vehicle: saline 94 % of control

COc1cc([N+](=O)[O-])c2nc(Cl)ccc2c1
inactive: [13] 100 % of control | dose: 200.0 mg/kg/injection, schedule: Q01DX001 (ip), vehicle: carboxymethylcellulose (CMC) 88 % of control | dose: 400.0 mg/kg/injection, schedule: Q01DX001 (ip), vehicle: carboxymethylcellulose (CMC) 97 % of control

CCc1cc(CC)c(CC)c(CC)c1
inactive: [14] 100 % of control | [15] 107 % of control | [16] 87 % of control | [17] 105 % of control | [18] 108 % of control | [19] 91 % of control

O=C(/C=C(\Cl)C(=O)NO)NO
inactive: dose: 100.0 mg/kg/injection, schedule: Q01DX009 (ip), vehicle: acetone 102 % of control

CC(C)(C)CC(C)(C)c1ccc(Oc2ccc([N+](=O)[O-])cc2S(=O)(=O)O)cc1
inactive: [1] 97 % of control

CSCCO
inactive: [14] 89 % of control | dose: 100.0 mg/kg/injection, schedule: Q04DX003 (ip), vehicle: saline sonified 102 % of control | [16] 100 % of control | dose: 200.0 mg/kg/injection, schedule: Q04DX003 (ip), vehicle: saline sonified 116 % of control | [18] 96 % of control | dose: 400.0 mg/kg/injection, schedule: Q04DX003 (ip), vehicle: saline sonified 98 % of control

CC(C)(NC(=O)C(F)(F)F)C(=O)O
inactive: [15] 100 % of control | [17] 87 % of control | [19] 95 % of control

O=P(N1CC1)(N1CC1)N(CCCCN(Cc1ccccc1)P(=O)(N1CC1)N1CC1)Cc1ccccc1
inactive: dose: 10.0 mg/kg/injection, schedule: Q01DX001 (ip), vehicle: carboxymethylcellulose (CMC) 104 % of control | dose: 20.0 mg/kg/injection, schedule: Q01DX001 (ip), vehicle: carboxymethylcellulose (CMC) 101 % of control | dose: 40.0 mg/kg/injection, schedule: Q01DX001 (ip), vehicle: carboxymethylcellulose (CMC) 104 % of control | dose: 80.0 mg/kg/injection, schedule: Q01DX001 (ip), vehicle: carboxymethylcellulose (CMC) 106 % of control | [13] 92 % of control

COc1ccc(S(=O)(=O)NC(=O)NC(=O)CC=C(C)C)cc1
inactive: dose: 50.0 mg/kg/injection, schedule: Q04DX002 (ip), vehicle: Klucel (hydroxypropylcellulose) (HPC) 103 % of control | [4] 105 % of control | dose: 100.0 mg/kg/injection, schedule: Q04DX002 (ip), vehicle: Klucel (hydroxypropylcellulose) (HPC) 96 % of control | [10] 110 % of control | [5] 95 % of control | dose: 200.0 mg/kg/injection, schedule: Q04DX002 (ip), vehicle: Klucel (hydroxypropylcellulose) (HPC) 103 % of control | [11] 98 % of control | [6] 97 % of control | [12] 104 % of control
